Assay results taken from patent US9938510B2, “Photobacterium sp. alpha-2-6-sialyltransferase variants” (The Regents of the University of California, priority 2014, dated 2018).
Where two headings read alike, the source gives them in different places.

B1: Photobacterium damselae α2-6-sialyltransferase His6-Pd2,6ST(16-497) (Photobacterium damselae) (protein)
chain: CNSDNTSLKETVSSNSADVVETETYQLTPIDAPSSFLSHSWEQTCGTPILNESDKQAISFDFVAPELKQDEKYCFTFKGITGDHRYITNTTLTVVAPTLEVYIDHASLPSLQQLIHIIQAKDEYPSNQRFVSWKRVTVDADNANKLNIHTYPLKGNNTSPEMVAAIDEYAQSKNRLNIEFYTNTAHVFNNLPPIIQPLYNNEKVKISHISLYDDGSSEYVSLYQWKDTPNKIETLEGEVSLLANYLAGTSPDAPKGMGNRYNWHKLYDTDYYFLREDYLDVEANLHDLRDYLGSSAKQMPWDEFAKLSDSQQTLFLDIVGFDKEQLQQQYSQSPLPNFIFTGTTTWAGGETKEYYAQQQVNVINNAINETSPYYLGKDYDLFFKGHPAGGVINDIILGSFPDMINIPAKISFEVLMMTDMLPDTVAGIASSLYFTIPADKVNFIVFTSSDTITDREEALKSPLVQVMLTLGIVKEKDVLFWA

How the values were obtained:
[1] = test system: Photobacterium sp. JH-ISH-224 α2-6-sialyltransferase Psp26ST(15-501)-His6, wild type, SEQ ID NO: 23; conditions: apparent, donor CMP-Neu5Ac, cited from earlier work
[2] = target: Photobacterium sp. JH-ISH-224 α2-6-sialyltransferase Psp2,6ST(15-501)-His6, wild type, SEQ ID NO: 23 (Photobacterium sp. JT-ISH-224, UniProt A8QYL1); assay: Donor hydrolysis kinetics (CMP-Neu5Ac hydrolysis), wild-type Psp2,6ST(15-501)-His6; assay type: biochemical; conditions: apparent, 20° C., 10 min, Tris-HCl pH 8.0
Protocol: (§1) Procedure for Kinetic Analysis of Donor Hydrolysis by His6-Pd2,6ST(16-497), Psp26ST(15-501)-His6 and its A235D and A366G Mutants
(§2) The kinetics study for the donor hydrolysis activity of His6-Pd2,6ST(16-497) was carried out at 37° C. for 20 min in Tris-HCl buffer (200 mM, pH 8.0). The kinetics study for the donor hydrolysis activities of Psp26ST(15-501)-His6 and its A235D mutant was carried out at 20° C. for 10 min in Tris-HCl buffer (200 mM, pH 8.0). All reactions were performed in duplicate in a total volume of 10 μL containing varied concentrations of CMP-Neu5Ac (10, 20, 40, 60, 80 and 100 mM) and the enzyme (6 μM). Reactions were stopped by adding 10 μL of ethanol and then centrifuged. The supernatants were analyzed by a P/ACETM capillary electrophoresis (CE) system equipped with a photodiode array (PDA) detector (Beckman Coulter, Inc., Fullerton, Calif.). CE conditions were as follows: 75 μm i.d. capillary, 25 KV/80μÅ, 5 s vacuum injections, monitored at 200 nm and 254 nm, the running buffer used was sodium tetraborate (25 mM, pH 9.4). Apparent kinetic parameters were obtained by fitting the experimental data (the average values of duplicate assay results) into the Michaelis-Menten equation using Grafit 5.0.

[3] = test system: Photobacterium sp. JH-ISH-224 α2-6-sialyltransferase Psp26ST(15-501)-His6 A366G mutant, SEQ ID NO: 2; assay: Sialyltransferase kinetics, Psp26ST(15-501)-His6 A366G mutant; assay type: biochemical; conditions: apparent, varied CMP-Neu5Ac
Protocol: Reactions were carried out in duplicate at 20° C. for 20 minutes in a total volume of 10 μL in a proper buffer at the optimal pH according to the pH profile of the wild-type enzyme (see, Ding, 2011, supra). When LacβMU was used as an acceptor, the conditions were: Tris-HCl buffer (200 mM, pH 8.0), enzyme (0.3 μM), varied concentrations of LacβMU (0.1, 0.25, 0.4, 1.0, 2.0, 4.0, and 6.0 mM) with a fixed concentration of CMP-Neu5Ac (1.0 mM) or varied concentrations of CMP-Neu5Ac (0.1, 0.25, 0.4, 1.0, 2.0, 4.0, and 6.0 mM) with a fixed concentration of LacβMU (1.0 mM). When GalNAcα2AA was used as an acceptor, the conditions were: NaOAc-HOAc buffer (200 mM, pH 5.0), enzyme (6 μM), varied concentrations of GalNAcα2AA (0.5, 0.8, 1.0, 2.0, 4.0, 8.0, and 10.0 mM) and a fixed concentration of CMP-Neu5Ac (4.0 mM) or varied concentrations of CMP-Neu5Ac (0.5, 1.0, 2.0, 4.0, 5.0, 8.0, and 10.0 mM) with a fixed concentration of GalNAcα2AA (1.0 mM). When GalNAcαSer was used as an acceptor, the conditions were: Tris-HCl buffer (200 mM, pH 8.0), enzyme (0.6 μM), varied concentrations of GalNAcαSer (0.1, 0.25, 0.5, 1.0, 2.0, 4.0, 8.0, and 10.0 mM) and a fixed concentration of CMP-Neu5Ac (2.0 mM). When GalNAcαThr was used as an acceptor, the conditions were: Tris-HCl buffer (200 mM, pH 8.0), enzyme (3.0 μM), varied concentrations of GalNAcαThr (0.5, 1.0, 2.0, 4.0, 10.0, 20.0, 40.0, 60.0 mM) and a fixed concentration of CMP-Neu5Ac (4.0 mM). Results analysis was performed using the HPLC system as described above for sialyltransferase activity assays. Apparent kinetic parameters were obtained by fitting the experimental data (the average values of duplicate assay results) into the Michaelis-Menten equation using Grafit 5.0.

[4] = substrate: CC(=O)N[C@H]1[C@H]([C@H](O)[C@H](O)CO)O[C@](OP(=O)(O)OC[C@H]2O[C@@H](n3ccc(N)nc3=O)[C@H](O)[C@@H]2O)(C(=O)O)C[C@@H]1O; assay: Donor hydrolysis kinetics (CMP-Neu5Ac hydrolysis), His6-Pd2,6ST(16-497); assay type: biochemical, Photobacterium damselae; conditions: other: apparent, 37° C., 20 min, Tris-HCl pH 8.0, pH 2.6
Protocol: as §1, §2

[5] = GalNAcα2AA 1.0 mM, NaOAc-HOAc pH 5.0, 20° C.
[6] = LacβMU 1.0 mM, Tris-HCl pH 8.0, 20° C.

Molecule | Km ([1]; acceptor GalNAcα2AA) [µM] | kcat ([1]; acceptor GalNAcα2AA) [s⁻¹] | Km ([1]; acceptor LacβMU) [µM] | kcat ([1]; acceptor LacβMU) | kcat [2] | Km [3, 5] [µM] | kcat [3, 5] [s⁻¹] | Km [3, 6] [µM] | kcat [3, 6] | kcat [4] [s⁻¹]
CC(=O)N[C@H]1[C@H]([C@H](O)[C@H](O)CO)O[C@](OP(=O)(O)OC[C@H]2O[C@@H](n3ccc(N)nc3=O)[C@H](O)[C@@H]2O)(C(=O)O)C[C@@H]1O [CMP-Neu5Ac, cytidine 5′-monophosphate N-acetylneuraminic acid] | 3900 ± 400 | 0.08 ± 0.0033 | 620 | (1.4 ± 0.1) × 10^2 min^−1 | (2.9 ± 0.3) × 10^2 min^−1 | 3300 ± 400 | 0.0983 ± 0.0033 | 630 | (1.3 ± 0.1) × 10^2 min^−1 | 
B1 |  |  |  |  |  |  |  |  |  | 3.67 ± 0.333
